Test results from PMC10367131 (ACS Synthetic Biology, 2023).

Columns and labels:
VgEcR/RXR = experiment: Original VgEcR/RXR luciferase reporter co-transfection assay in HEK293 cells; format: cell-based, human; details: ligand alone at 1 µM or 10 µM, HEK293, 20 h
VgGR/RXR = target: T1, VgGR/RXR (Homo sapiens, UniProt P04150+P19793, F602S); experiment: VgGR/RXR luciferase reporter co-transfection assay in HEK293 cells; format: cell-based
T1 sequence (P04150 523-777 F602S limits assumed): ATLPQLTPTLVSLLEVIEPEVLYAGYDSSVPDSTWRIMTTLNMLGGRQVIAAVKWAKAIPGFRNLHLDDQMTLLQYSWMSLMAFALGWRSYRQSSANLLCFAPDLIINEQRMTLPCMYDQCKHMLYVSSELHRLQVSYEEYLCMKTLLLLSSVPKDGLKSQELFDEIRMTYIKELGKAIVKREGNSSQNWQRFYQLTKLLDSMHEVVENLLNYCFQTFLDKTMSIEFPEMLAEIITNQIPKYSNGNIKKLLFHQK
T1 sequence (P19793 1-462): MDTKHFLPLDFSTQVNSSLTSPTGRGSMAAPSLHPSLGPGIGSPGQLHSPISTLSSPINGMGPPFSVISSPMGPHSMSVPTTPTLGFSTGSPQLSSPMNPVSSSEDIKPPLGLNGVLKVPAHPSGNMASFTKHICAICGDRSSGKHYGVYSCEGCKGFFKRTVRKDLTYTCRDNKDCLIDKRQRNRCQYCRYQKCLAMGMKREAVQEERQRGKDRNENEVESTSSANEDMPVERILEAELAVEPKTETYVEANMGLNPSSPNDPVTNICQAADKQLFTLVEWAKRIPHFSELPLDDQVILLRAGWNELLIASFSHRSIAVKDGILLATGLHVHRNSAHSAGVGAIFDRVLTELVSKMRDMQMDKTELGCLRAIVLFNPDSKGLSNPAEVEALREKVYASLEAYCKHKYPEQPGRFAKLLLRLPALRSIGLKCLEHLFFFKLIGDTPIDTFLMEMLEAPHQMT

## C[C@@H]1C[C@H]2[C@@H]3CCC4=CC(=O)C=C[C@]4(C)[C@@]3(F)[C@@H](O)C[C@]2(C)[C@@]1(O)C(=O)CO [DEX, dexamethasone]
VgEcR/RXR
  Response of original VgEcR/RXR reporter expression to ligand: did not respond
VgGR/RXR
  Maximal activation of reporter expression by ligand alone: around one order of magnitude

## C[C@]12C=CC(=O)C=C1CC[C@@H]1[C@@H]2[C@@H](O)C[C@@]2(C)[C@H]1CC[C@]2(O)C(=O)CO [PRED, prednisolone]
VgEcR/RXR
  Response of original VgEcR/RXR reporter expression to ligand: did not respond

## CC(C)CC[C@@H](O)[C@](C)(O)[C@H]1CC[C@@]2(O)C3=CC(=O)[C@@H]4C[C@@H](O)[C@@H](O)C[C@]4(C)[C@H]3CC[C@]12C [PonA, ponasterone A]
VgGR/RXR; ligand alone, HEK293, 20 h
  Response of VgGR/RXR reporter expression to ligand: did not respond

## CC#C[C@]1(O)CC[C@H]2[C@@H]3CCC4=CC(=O)CCC4=C3[C@@H](c3ccc(N(C)C)cc3)C[C@@]21C [RU-486, mifepristone]
VgGR/RXR
  Effect of increasing antagonist concentration on DEX-activated output: reduction of output levels
  Effect on reporter expression in the absence of DEX: increase in reporter expression
